In patent US12599136B2, “Substituted isophthalic acid diamides and their use as herbicides” (Bayer Aktiengesellschaft, priority 2020, dated 2026):

Columns and labels:
Assay type in all cases: in vivo
Veronica persica [1] = test: Pre-emergence herbicidal action against VERPE; details: 320 g/ha
Method in brief: (§1)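 Visual rating at 3 weeks vs untreated pots; 0–100% scale, 100% = plants died. Treatment: aqueous WP/EC spray onto covering soil, 600–800 l/ha, 0.2% wetter, seeds in sandy loam.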

Lolium rigidum = test: Pre-emergence herbicidal action against LOLRI; details: 320 g/ha
Method in brief: as §1

Setaria viridis [2] = test: Pre-emergence herbicidal action against SETVI
Method in brief: as §1

Viola tricolor [3] = test: Post-emergence herbicidal action against VIOTR
Method in brief: (§2)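 Greenhouse pot plants in sandy loam were sprayed at the one-leaf stage, 2 to 3 weeks after sowing, with WP or EC formulations as aqueous suspension or emulsion (600 to 800 l/ha water, 0.2% wetting agent). About 3 weeks later, damage was scored visually against untreated controls as % action (100% = dead, 0% = like control).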

Veronica persica [4] = test: Post-emergence herbicidal action against VERPE; details: 80 g/ha, visual assessment about 3 weeks after treatment
Method in brief: as §2

Cyperus esculentus = test: Pre-emergence herbicidal action against CYPES; details: visual score after 3 weeks vs untreated controls
Text: (§3) Seeds of monocotyledonous and dicotyledonous weed plants and crop plants are laid out in sandy loam soil in wood-fiber pots and covered with soil. The compounds of the invention, formulated in the form of wettable powders (WP) or as emulsion concentrates (EC), are then applied to the surface of the covering soil in the form of an aqueous suspension or emulsion at a water application rate equivalent to 600 to 800 l/ha, with addition of 0.2% wetting agent. After the treatment, the pots are placed in a greenhouse and kept under good growth conditions for the trial plants. The damage to the test plants is scored visually after a test period of 3 weeks by comparison with untreated controls (herbicidal activity in percent (%): 100% activity=the plants have died, 0% activity=like control plants). […] The tables below illustrate, in an illustrative manner, the post-emergence herbicidal action of the compounds of the invention, the herbicidal activity being stated in percent.

Abutilon theophrasti [5] = test: Post-emergence herbicidal action against ABUTH
Method in brief: as §2

Pharbitis purpurea [6] = test: Post-emergence herbicidal action against PHBPU; details: visual assessment about 3 weeks after treatment
Method in brief: as §2

Echinochloa crus-galli [7] = test: Pre-emergence herbicidal action against ECHCG; details: visual score after 3 weeks vs untreated controls
Method in brief: as §1

Stellaria media [8] = test: Pre-emergence herbicidal action against STEME
Text: as §3

Echinochloa crus-galli [9] = test: Post-emergence herbicidal action against ECHCG; details: visual assessment about 3 weeks after treatment
Method in brief: as §2

Avena fatua [10] = test: Pre-emergence herbicidal action against AVEFA; details: 320 g/ha; visual score after 3 weeks vs untreated controls
Method in brief: as §1

Matricaria inodora [11] = test: Post-emergence herbicidal action against MATIN; details: visual assessment about 3 weeks after treatment
Method in brief: as §2

Alopecurus myosuroides [12] = test: Pre-emergence herbicidal action against ALOMY; details: 320 g/ha; visual score after 3 weeks vs untreated controls
Method in brief: as §1

Avena fatua [13] = test: Post-emergence herbicidal action against AVEFA; details: visual assessment about 3 weeks after treatment
Method in brief: as §2

Setaria viridis [14] = test: Post-emergence herbicidal action against SETVI; details: visual assessment about 3 weeks after treatment
Method in brief: as §2

Pharbitis purpurea [15] = test: Pre-emergence herbicidal action against PHBPU; details: 320 g/ha; visual score after 3 weeks vs untreated controls
Text: as §3

Viola tricolor [16] = test: Pre-emergence herbicidal action against VIOTR
Method in brief: as §1

Amaranthus retroflexus [17] = test: Pre-emergence herbicidal action against AMARE; details: visual score after 3 weeks vs untreated controls
Method in brief: as §1

Abutilon theophrasti [18] = test: Pre-emergence herbicidal action against ABUTH; details: visual score after 3 weeks vs untreated controls
Method in brief: as §1

Amaranthus retroflexus [19] = test: Post-emergence herbicidal action against AMARE; details: visual assessment about 3 weeks after treatment
Method in brief: as §2

Stellaria media [20] = test: Post-emergence herbicidal action against STEME; details: visual assessment about 3 weeks after treatment
Method: Seeds of monocotyledonous and dicotyledonous weed and crop plants are laid out in sandy loam soil in wood-fiber pots, covered with soil and cultivated in a greenhouse under good growth conditions. 2 to 3 weeks after sowing, the test plants are treated at the one-leaf stage. The compounds of the invention, formulated in the form of wettable powders (WP) or as emulsion concentrates (EC), are then sprayed onto the green parts of the plants in the form of an aqueous suspension or emulsion at a water application rate equivalent to 600 to 800 l/ha, with addition of 0.2% wetting agent. After the test plants have been left to stand in the greenhouse under optimal growth conditions for about 3 weeks, the action of the preparations is assessed visually in comparison to untreated controls (herbicidal action in percent (%): 100% activity=the plants have died, 0% activity=like control plants). […] The tables below illustrate, in an illustrative manner, the post-emergence herbicidal action of the compounds of the invention, the herbicidal activity being stated in percent.

Alopecurus myosuroides [21] = test: Post-emergence herbicidal action against ALOMY; details: 80 g/ha
Method in brief: as §2

Matricaria inodora [22] = test: Pre-emergence herbicidal action against MATIN; details: visual score after 3 weeks vs untreated controls
Method in brief: as §1

Polygonum convolvulus = test: Pre-emergence herbicidal action against POLCO; details: 320 g/ha
Method in brief: as §1

[23] = Dosage column 320 g/ha (heading prints 3200 g/ha)

SMILES: CCCn1nnnc1NC(=O)c1ccc(C(F)(F)F)c(C(=O)N(C)CC2CC2)c1Cl [Example 3-126]
- Pre-emergence action against VERPE (Veronica persica [1]): 90%
- Pre-emergence action against LOLRI (Lolium rigidum): 80%
- Pre-emergence action against SETVI (Setaria viridis [2]; 80 g/ha): 80%
- Pre-emergence action against SETVI (Setaria viridis [2]; 320 g/ha): 100%
- Post-emergence action against VIOTR in % (Viola tricolor [3]; 5 g/ha): 80%
- Post-emergence action against VIOTR in % (Viola tricolor [3]; 20 g/ha): 90%
- Post-emergence action against VIOTR in % (Viola tricolor [3]; 80 g/ha): 100%
- Post-emergence action against VERPE in % (Veronica persica [4]): 90%
- Pre-emergence action against CYPES (Cyperus esculentus; 80 g/ha): 100%
- Pre-emergence action against CYPES (Cyperus esculentus; 320 g/ha): 100%
- Post-emergence action against ABUTH (Abutilon theophrasti [5]; 5 g/ha): 100%
- Post-emergence action against ABUTH (Abutilon theophrasti [5]; 20 g/ha): 100%
- Post-emergence action against ABUTH (Abutilon theophrasti [5]; 80 g/ha): 100%
- Post-emergence action against PHBPU in % (Pharbitis purpurea [6]; 20 g/ha): 90%
- Post-emergence action against PHBPU in % (Pharbitis purpurea [6]; 80 g/ha): 100%
- Pre-emergence action against ECHCG (Echinochloa crus-galli [7]; 320 g/ha): 80%
- Pre-emergence action against STEME (Stellaria media [8]; 20 g/ha): 80%
- Pre-emergence action against STEME (Stellaria media [8]; 80 g/ha): 80%
- Pre-emergence action against STEME (Stellaria media [8]; 320 g/ha): 100%
- Post-emergence action against ECHCG in % (Echinochloa crus-galli [9]; 5 g/ha): 90%
- Post-emergence action against ECHCG in % (Echinochloa crus-galli [9]; 20 g/ha): 100%
- Post-emergence action against ECHCG in % (Echinochloa crus-galli [9]; 80 g/ha): 100%
- Pre-emergence action against AVEFA (Avena fatua [10]): 100%
- Post-emergence action against MATIN in % (Matricaria inodora [11]; 5 g/ha): 80%
- Post-emergence action against MATIN in % (Matricaria inodora [11]; 20 g/ha): 90%
- Post-emergence action against MATIN in % (Matricaria inodora [11]; 80 g/ha): 100%
- Pre-emergence action against ALOMY (Alopecurus myosuroides [12]): 90%
- Post-emergence action against AVEFA in % (Avena fatua [13]; 20 g/ha): 90%
- Post-emergence action against AVEFA in % (Avena fatua [13]; 80 g/ha): 100%
- Post-emergence action against SETVI in % (Setaria viridis [14]; 20 g/ha): 80%
- Post-emergence action against SETVI in % (Setaria viridis [14]; 80 g/ha): 100%
- Pre-emergence action against PHBPU (Pharbitis purpurea [15]): 80%
- Pre-emergence action against VIOTR (Viola tricolor [16]; 80 g/ha): 90%
- Pre-emergence action against VIOTR (Viola tricolor [16]; 320 g/ha): 100%
- Pre-emergence action against AMARE (Amaranthus retroflexus [17]; 20 g/ha): 90%
- Pre-emergence action against AMARE (Amaranthus retroflexus [17]; 80 g/ha): 100%
- Pre-emergence action against AMARE (Amaranthus retroflexus [17]; 320 g/ha): 100%
- Pre-emergence action against ABUTH (Abutilon theophrasti [18]; 20 g/ha): 100%
- Pre-emergence action against ABUTH (Abutilon theophrasti [18]; 80 g/ha): 100%
- Pre-emergence action against ABUTH (Abutilon theophrasti [18]; [23]): 100%
- Post-emergence action against AMARE in % (Amaranthus retroflexus [19]; 5 g/ha): 100%
- Post-emergence action against AMARE in % (Amaranthus retroflexus [19]; 20 g/ha): 100%
- Post-emergence action against AMARE in % (Amaranthus retroflexus [19]; 80 g/ha): 100%
- Post-emergence action against STEME in % (Stellaria media [20]; 5 g/ha): 100%
- Post-emergence action against STEME in % (Stellaria media [20]; 20 g/ha): 100%
- Post-emergence action against STEME in % (Stellaria media [20]; 80 g/ha): 100%
- Post-emergence action against ALOMY (Alopecurus myosuroides [21]): 80%
- Pre-emergence action against MATIN (Matricaria inodora [22]; 80 g/ha): 90%
- Pre-emergence action against MATIN (Matricaria inodora [22]; 320 g/ha): 100%

SMILES: CCCn1nnnc1NC(=O)c1ccc(C(F)(F)F)c(C(=O)n2cccn2)c1Cl [Example 3-153]
- Pre-emergence action against VERPE (Veronica persica [1]): 90%
- Pre-emergence action against SETVI (Setaria viridis [2]; 20 g/ha): 90%
- Pre-emergence action against SETVI (Setaria viridis [2]; 80 g/ha): 100%
- Pre-emergence action against SETVI (Setaria viridis [2]; 320 g/ha): 100%
- Post-emergence action against VIOTR in % (Viola tricolor [3]; 80 g/ha): 90%
- Pre-emergence action against CYPES (Cyperus esculentus; 80 g/ha): 80%
- Pre-emergence action against CYPES (Cyperus esculentus; 320 g/ha): 80%
- Post-emergence action against ABUTH (Abutilon theophrasti [5]; 5 g/ha): 90%
- Post-emergence action against ABUTH (Abutilon theophrasti [5]; 20 g/ha): 90%
- Post-emergence action against ABUTH (Abutilon theophrasti [5]; 80 g/ha): 90%
- Post-emergence action against PHBPU in % (Pharbitis purpurea [6]; 5 g/ha): 80%
- Post-emergence action against PHBPU in % (Pharbitis purpurea [6]; 20 g/ha): 80%
- Post-emergence action against PHBPU in % (Pharbitis purpurea [6]; 80 g/ha): 90%
- Pre-emergence action against ECHCG (Echinochloa crus-galli [7]; 80 g/ha): 90%
- Pre-emergence action against ECHCG (Echinochloa crus-galli [7]; 320 g/ha): 100%
- Pre-emergence action against STEME (Stellaria media [8]; 20 g/ha): 90%
- Pre-emergence action against STEME (Stellaria media [8]; 80 g/ha): 100%
- Pre-emergence action against STEME (Stellaria media [8]; 320 g/ha): 100%
- Post-emergence action against ECHCG in % (Echinochloa crus-galli [9]; 20 g/ha): 80%
- Post-emergence action against ECHCG in % (Echinochloa crus-galli [9]; 80 g/ha): 100%
- Pre-emergence action against AVEFA (Avena fatua [10]): 90%
- Post-emergence action against MATIN in % (Matricaria inodora [11]; 5 g/ha): 80%
- Post-emergence action against MATIN in % (Matricaria inodora [11]; 20 g/ha): 90%
- Post-emergence action against MATIN in % (Matricaria inodora [11]; 80 g/ha): 100%
- Pre-emergence action against POLCO (Polygonum convolvulus): 90%
- Post-emergence action against AVEFA in % (Avena fatua [13]; 80 g/ha): 80%
- Pre-emergence action against PHBPU (Pharbitis purpurea [15]): 100%
- Pre-emergence action against VIOTR (Viola tricolor [16]; 20 g/ha): 90%
- Pre-emergence action against VIOTR (Viola tricolor [16]; 80 g/ha): 100%
- Pre-emergence action against VIOTR (Viola tricolor [16]; 320 g/ha): 100%
- Pre-emergence action against AMARE (Amaranthus retroflexus [17]; 20 g/ha): 100%
- Pre-emergence action against AMARE (Amaranthus retroflexus [17]; 80 g/ha): 100%
- Pre-emergence action against AMARE (Amaranthus retroflexus [17]; 320 g/ha): 100%
- Pre-emergence action against ABUTH (Abutilon theophrasti [18]; 20 g/ha): 100%
- Pre-emergence action against ABUTH (Abutilon theophrasti [18]; 80 g/ha): 100%
- Pre-emergence action against ABUTH (Abutilon theophrasti [18]; [23]): 100%
- Post-emergence action against AMARE in % (Amaranthus retroflexus [19]; 5 g/ha): 90%
- Post-emergence action against AMARE in % (Amaranthus retroflexus [19]; 20 g/ha): 90%
- Post-emergence action against AMARE in % (Amaranthus retroflexus [19]; 80 g/ha): 100%
- Post-emergence action against STEME in % (Stellaria media [20]; 5 g/ha): 100%
- Post-emergence action against STEME in % (Stellaria media [20]; 20 g/ha): 100%
- Post-emergence action against STEME in % (Stellaria media [20]; 80 g/ha): 100%
- Pre-emergence action against MATIN (Matricaria inodora [22]; 20 g/ha): 80%
- Pre-emergence action against MATIN (Matricaria inodora [22]; 80 g/ha): 100%
- Pre-emergence action against MATIN (Matricaria inodora [22]; 320 g/ha): 100%
